Data on one compound can be found in patent US20060182771A1, “Formulations for ocular treatment” (priority 2005, published 2006).

The data set can be described thus: Concentration of rapamycin in the vitreous of rabbit eyes after intravitreal injection of the self-emulsifying formulation (LCMS). It is filed as in vivo, New Zealand white rabbits. To be noted: full vitreous homogenized, average of four eyes. The method, then: 50 μl of the formulation described in Example 1 were injected into the vitreous of the eye of New Zealand white rabbits. The full vitreous, which included the area into which the self-emulsifying formulation was injected, was homogenized and analyzed at 1, 5, 24, 72 and 168 hours for the concentration of rapamycin remaining therein. The average concentration of the vitreous was calculated by dividing the mass of rapamycin measured by the volume of vitreous analyzed. The analysis was by liquid chromatography mass spectroscopy (LCMS). Each timepoint represents the average of two eyes of each of two rabbits (four eyes at each timepoint).
The average concentration of rapamycin at 1, 5, 24, 72 and 168 hours was about 347, about 401, about 273, about 18, and about 1 μg/μl, respectively.

Consider `CO[C@H]1C[C@@H]2CC[C@@H](C)[C@@](O)(O2)C(=O)C(=O)N2CCCC[C@H]2C(=O)O[C@H]([C@H](C)C[C@@H]2CC[C@@H](O)[C@H](OC)C2)CC(=O)[C@H](C)/C=C(\C)[C@@H](O)[C@@H](OC)C(=O)[C@H](C)C[C@H](C)/C=C/C=C/C=C/1C` [rapamycin], for which the “average concentration of rapamycin in the vitreous” value (“average concentration of rapamycin” below) (1 hour after injection of 50 μl of the Example 1 formulation into the vitreous) is given as “about 347 μg/μl”, the “average concentration of rapamycin” value (5 hours after injection of 50 μl of the Example 1 formulation into the vitreous) is “about 401 μg/μl”, the “average concentration of rapamycin” value (24 hours after injection of 50 μl of the Example 1 formulation into the vitreous) is recorded as “about 273 μg/μl” and the “average concentration of rapamycin” value (72 hours after injection of 50 μl of the Example 1 formulation into the vitreous) was “about 18 μg/μl”. The compound also yielded a concentration at 168 h (New Zealand white, rabbit, vitreous (full vitreous homogenate), other: intravitreal injection, 168 hours after injection of 50 μl of the Example 1 formulation into the vitreous) of around 1000 µg/mL.
